56 compounds from patent US20100305124A1, “Acylated Aminopyridine and Aminopyridazine Insecticides” (BAYER CROPSCIENCE AG, priority 2009, published 2010) can be followed below.

The structures appear in SMILES notation.

The test system of the first experiment is common spider mite (Tetranychus urticae). Briefly: Tetranychus test (TETRUR), sprayed French bean plants. The experiment is classed as in vivo. To be noted: application rate of 500 ppm; spray on French bean plants. As to the method: Tetranychus Test (TETRUR) Solvent: 3 parts by weight of dimethylformamide Emulsifier: 1 part by weight of polyoxyethylenealkyl phenyl ether An appropriate preparation of active ingredient is prepared by mixing 1 part by weight of active ingredient with the stated amount of solvent and emulsifier and diluting the concentrate with water to the desired concentration. French bean (Phaseolus vulgaris) plants are infested with a mixed population of the common spider mite (Tetranychus urticae) and sprayed with the preparation of active ingredient at the desired concentration. After the desired time, the effect in % is determined: here, 100% means that all of the spider mites have been killed. Conversely, 0% means that no spider mites have been killed.
For the compound `CN(C(=O)c1ccc(Oc2ccc(C(C)(C)C)cc2)nc1)c1cccnc1` [I-127], the “effect in % (spider mites killed)” value is recorded as at least 80%.

The subject of another experiment is green peach aphid (Myzus persicae). Briefly: Myzus test (MYZUPE spray treatment), Chinese cabbage leaf discs. To be noted: foliar, application rate of 20 g/ha, spray on Chinese cabbage discs, read-out: effect in % (aphids killed). The experiment is classed as in vivo. How it is done: Myzus Test (MYZUPE Spray Treatment)
Solvents: 78 parts by weight of acetone • • 1.5 parts by weight of dimethylformamide Emulsifier: 0.5 part by weight of alkylaryl polyglycol ether
An appropriate preparation of active ingredient is prepared by mixing 1 part by weight of active ingredient with the stated amounts of solvents and emulsifier and diluting the concentrate with emulsifier-containing water to the desired concentration.
Discs of Chinese cabbage (Brassica pekinensis) infested with all stages of the green peach aphid (Myzus persicae) are sprayed with a preparation of active ingredient at the desired concentration.
After the desired time, the effect in % is determined. Here, 100% means that all of the aphids have been killed; 0% means that no aphids have been killed.
Consider `Cc1ncccc1-n1ncc(C(=O)Nc2cccnc2)c1C` [I-2], for which the pest or weed control at 20 g/ha was at least 80%.

Still in this experiment, the particulars now being: foliar, application rate of 500 g/ha, spray on Chinese cabbage discs, read-out: effect in % (aphids killed).
For `CC(F)c1nn(C)cc1C(=O)N(C)c1ccnnc1` (centres unmarked) [I-321], the pest or weed control at 500 g/ha was at least 80%.
The same measure, in the same setting: under `CCCC(=O)Nc1cc(C(=O)N(C)c2cccnc2)ccc1OC` [I-336] stands at least 80%.
In the case of `CCC(C)C(=O)Nc1cc(C(=O)N(C)c2cccnc2)ccc1OC` (centres unmarked) [I-332], the pest or weed control at 500 g/ha was at least 80%.
Same read-out and setting: the same measure for `CN(C(=O)c1cnn(CC(F)(F)F)c1C(F)(F)F)c1cccnc1` [I-330]: at least 80%.
On the same count and under the same terms, the same measure for `CN(C(=O)c1cnn(-c2ccccc2Cl)c1C(F)(F)F)c1cccnc1` [I-271]: at least 80%.
Same read-out and setting: under `CC(=O)Nc1cc(C(=O)N(C)c2cccnc2)ccc1Cl` [I-307] stands at least 80%.
For `CN(C(=O)c1ccc(F)c(NC(=O)C2CC2)c1)c1cccnc1` [I-301], the pest or weed control at 500 g/ha is at least 80%.
Same read-out and setting: under `COC(C)c1c(C(=O)N(C)c2cccnc2)cnn1-c1ncccn1` (centres unmarked) [I-276] stands at least 80%; under `CC(C)n1ncc(C(=O)N(C)c2cccnc2)c1C(F)(F)F` [I-329], at least 80%; under `CCC(=O)Nc1cc(C(=O)N(C)c2cccnc2)ccc1OC` [I-331], at least 80%.
Still for that read-out and setting: the same measure for `CN(C(=O)c1ccc(OC(F)(F)F)cc1)c1cccnc1` [I-266]: at least 80%; for `O=C(Nc1cccnc1)c1cnn(CC(F)(F)F)c1C(F)(F)F` [I-282]: at least 80%; for `COc1ccc(C(=O)N(C)c2cccnc2)cc1NC(=O)C(C)C` [I-297]: at least 80%.
`Cc1ccc(C(=O)N(C)c2cccnc2)cc1NC(=O)C(C)(C)C` [I-305]: the pest or weed control at 500 g/ha was at least 80%.
On the same count and under the same terms, the same measure for `O=C(Nc1cccnc1)c1cnn(CC(F)(F)F)c1-c1cnccn1` [I-257]: at least 80%.
Still for that read-out and setting: under `CCc1nn(C)cc1C(=O)N(C)c1ccnnc1` [I-326] stands at least 80%.
Still for that read-out and setting: under `CN(C(=O)c1cnn(CC(F)(F)F)c1C(F)F)c1cccnc1` [I-269] stands at least 80%; under `Cc1ccc(C(=O)N(C)c2cccnc2)cc1NC(=O)C(C)C` [I-300, 3-Isobutyrylamino-4,N-dimethyl-N-pyridin-3-ylbenzamide], at least 80%; under `CN(C(=O)c1cnn(-c2ncccn2)c1C(F)(F)F)c1cccnc1` [I-268, 1-Pyrimidin-2-yl-5-trifluoromethyl-1H-pyrazole-4-carboxylic acid methylpyridin-3-ylamide], at least 80%.
Take `CC(=O)Nc1cc(C(=O)N(C)c2cccnc2)ccc1C` [I-308]: the pest or weed control at 500 g/ha was at least 80%.
As to `CN(C(=O)c1ccc(Cl)c(NC(=O)C2CC2)c1)c1cccnc1` [I-302], the pest or weed control at 500 g/ha is at least 80%.
Still for that read-out and setting: the same measure for `CCCC(=O)Nc1cc(C(=O)N(C)c2cccnc2)ccc1C` [I-315]: at least 80%.
Same read-out and setting: under `CC(C)C(=O)Nc1cc(C(=O)N(C)c2cccnc2)ccc1F` [I-298] stands at least 80%; under `Cn1cc(C(=O)Nc2ccnnc2)c(C(F)(F)F)n1` [I-281], at least 80%; under `Cc1ccc(C(=O)N(C)c2cccnc2)cc1NC(=O)NC(C)C` [I-314], at least 80%.
Same read-out and setting: the same measure for `CC(C)Oc1ccc(C(=O)N(C)c2cccnc2)cc1-n1ccc(C(F)(F)F)n1` [I-279]: at least 80%; for `COC(C)c1c(C(=O)N(C)c2cccnc2)cnn1CC(F)(F)F` (centres unmarked) [I-275]: at least 80%; for `CN(C(=O)c1csc(-c2ncccc2Cl)n1)c1cccnc1` [I-278]: at least 80%.
On to `COc1ccc(C(=O)N(C)c2cccnc2)cc1-n1cccn1` [I-280, 4-Methoxy-N-methyl-3-pyrazol-1-yl-N-pyridin-3-ylbenzamide], for which the pest or weed control at 500 g/ha was at least 80%.
On the same count and under the same terms, the same measure for `CCC(=O)Nc1cc(C(=O)N(C)c2cccnc2)ccc1C` [I-310]: at least 80%; for `COc1ccc(C(=O)Nc2cccnc2)cc1OC` [I-263]: at least 80%.
Still for that read-out and setting: under `CN(C(=O)c1cn(C)nc1C(F)F)c1ccnnc1` [I-319] stands at least 80%; under `CC(=O)Nc1cccc(C(=O)N(C)c2cccnc2)c1` [I-283], at least 80%; under `CCC(C)C(=O)Nc1cc(C(=O)N(C)c2cccnc2)ccc1C` (centres unmarked) [I-311], at least 80%.
As to `O=C(Nc1cccnc1)c1ccc(F)c(C(F)(F)F)c1` [I-258], the pest or weed control at 500 g/ha was at least 80%.
On the same count and under the same terms, the same measure for `CC(C)c1nn(C)cc1C(=O)N(C)c1ccnnc1` [I-323]: at least 80%; for `COc1ccc(C(=O)N(C)c2cccnc2)cc1NC(=O)C1CCCC1` [I-333]: at least 80%.
Still for that read-out and setting: under `CCn1cc(C(=O)N(C)c2ccnnc2)c(C)n1` [I-327] stands at least 80%; under `COc1ccc(C(=O)N(C)c2cccnc2)cc1NC(=O)C(C)(C)C` [I-303], at least 80%.
On the same count and under the same terms, the same measure for `COCc1c(C(=O)N(C)c2cccnc2)cnn1-c1ncccn1` [I-273]: at least 80%; for `Cc1ccc(C(=O)Nc2cccnc2)cc1NC(=O)C1CC1` [I-292]: at least 80%; for `CN(C(=O)c1cnn(-c2ncccn2)c1C(F)F)c1cccnc1` [I-274]: at least 80%.
With `O=C(Nc1cccnc1)c1ccc(OC(F)(F)F)cc1` [I-264], the pest or weed control at 500 g/ha is at least 80%.
On the same count and under the same terms, under `CN(C(=O)c1ccc(F)c(C(F)(F)F)c1)c1cccnc1` [I-259] stands at least 80%; under `Cc1ccc(C(=O)N(C)c2cccnc2)cc1[N+](=O)[O-]` [I-295], at least 80%.
Still for that read-out and setting: under `COCc1c(C(=O)N(C)c2cccnc2)cnn1CC(F)(F)F` [I-270] stands at least 80%; under `CC(C)C(=O)Nc1cc(C(=O)N(C)c2cccnc2)ccc1Cl` [I-299], at least 80%; under `COc1ccc(C(=O)N(C)c2cccnc2)cc1[N+](=O)[O-]` [I-294], at least 80%.
Consider `CN(C(=O)c1cccc(C(F)(F)F)c1)c1cccnc1` [I-262], for which the pest or weed control at 500 g/ha is at least 80%.
On the same count and under the same terms, the same measure for `CC(C)n1ncc(C(=O)Nc2cccnc2)c1C(F)(F)F` [I-285]: at least 80%; for `Cc1ccc(C(=O)N(C)c2cccnc2)cc1NC(=O)OC(C)C` [I-316]: at least 80%.
The same measure, in the same setting: the same measure for `CN(C(=O)c1cn(C)nc1C(F)(F)F)c1ccnnc1` [I-322]: at least 80%.

The same experiment, now with this note: foliar, application rate of 500 ppm, spray on Chinese cabbage discs, read-out: effect in % (aphids killed).
As for `CN(C(=O)c1ccc(S(C)(=O)=O)c(N)c1)c1cccnc1` [I-296], the pest or weed control at 500 ppm is at least 80%.
On to `CC(C)C(=O)Nc1cccc(C(=O)N(C)c2cccnc2)c1` [I-284], for which the pest or weed control at 500 ppm is at least 80%.
